Measurements reported in US6921810B2, “Bifunctional antibiotics” (The Scripps Research Institute, priority 2000, dated 2005).
In brackets after ≈: the same amount, converted by molar mass.

Experiments:
[1] = tested on: E. coli 16S rRNA A-site (AS-wt); assay: Surface plasmon resonance binding to immobilized biotinylated A-site rRNA; details: SPR; for Kd: AS-wt; for affinity for AS-wt relative to neamine: compared with neamine
Experimental: The dissociation constant (Kd) and binding stoichiometry were determined using surface plasmon resonance (SPR) against an immobilized rRNA sequence modeling the A-site of prokaryotic rRNA (FIGS. 1-4) (Hendrix, M.; et al. J. Am. Chem. Soc. 1997, 119, 3641; Wong, C.-H.; et al. Chem. Biol. 1998, 5, 397). […] We focused on neamine as it represents the simplest effective aminoglycoside antibiotic and contains the key β-hydroxyamine motif for interaction with the phosphodiester group and the Hoogsteen face of guanine residues in RNA (FIG. 2) (Hendrix, M.; et al. Angew. Chem., Int. Ed. Engl. 1997, 36, 95). […] Various dimers of neamine were therefore constructed in order to identify a bivalent aminoglycoside that would bind AS-wt with high affinity (FIG. 4), and at the same time resist and/or inhibit the modifying enzymes due to its unnatural structure (Some aminoglycoside dimers were prepared previously; however, the monomers bind the A-site stoichiometrically: see Michael; K.; et al. Bioorg. Med. Chem. 1999, 7, 1361; for vancomycin dimers, see Rao, J.; Whitesides, G. H. J. Am. Chem. Soc. 1997, 119, 10286; Sundram, U. N.; et al. J. Am. Chem. Soc. 1996, 118, 13107).
Reactions were performed under inert atmosphere unless otherwise stated. THF and CH2Cl2 were distilled under Ar with benzophenone ketyl and CaH2, respectively. NMR spectra were obtained on a Bruker AMX-400. The sites of enzymatic modification of neomycin and gentamicin that cause drug resistance are shown in FIG. 1 (Daigle, D. M.; et al. Chem. Biol. 1999, 6, 99). Synthesis of biotinylated RNAs and surface plasmon resonance experiments were performed as previously described and Kd values were also calculated as previously described (FIG. 2) (Hendrix, M.; et al. J. Am. Chem. Soc. 1997, 119, 3641).

[2] = molecular target: APH(2″) activity of AAC(6′)-APH(2″) (Staphylococcus aureus, UniProt P0A0C1); assay: Aminoglycoside-modifying enzyme kinetics, APH(2″) activity of the bifunctional enzyme; format: biochemical; details: for substrate for APH(2″) activity: in words
Experimental: (§1) They were in fact potent competitive inhibitors of the APH(2″) activity, Kis=0.8 μM for dimer 4, 0.1 μM for 6 and 0.7 μM for 27.
(§2) BF refers to the bifunctional enzyme AAC(6′)-APH(2″), where the particular activity is indicated. The neamine data were obtained from Daigle, D. M.; et al. Chem. Biol. 1999, 6, 99.

[3] = tested on: E. coli ATCC 25922; assay: Antimicrobial testing (MIC, NCCLS M7-A4); format: cell-based; details: Escherichia coli, ATCC25922; E. coli reference strain
Experimental: (§3) Antimicrobial Testing: The Kirby-Bauer Disk assay was performed as previously described (Hendrix, M.; et al. J. Am. Chem. Soc. 1997, 119, 3641; Phillips, I.; Williams, D. In Laboratory Methods in Antimicrobial Chemotherapy; Gerrod, L., Ed.; Churchill Livingstone Press: Edinburg, 1978; pp 3-30). Reference strains E. coli ATCC 25922 and S. aureus ATCC 25923 were obtained as lyophilized pellets (Difco). MIC testing was performed as recommended in the NCCLS Publication M7-A4.

[4] = molecular target: AAC(6′)-Ii (Enterococcus faecium, UniProt Q47764); assay: Aminoglycoside-modifying enzyme kinetics, AAC(6′)-Ii; format: biochemical; details: in words
Experimental: as §1, §2

[5] = molecular target: AAC(6′) activity of AAC(6′)-APH(2″) (Staphylococcus aureus, UniProt P0A0C1); assay: Aminoglycoside-modifying enzyme kinetics, AAC(6′) activity of the bifunctional enzyme; format: biochemical; details: in words
Experimental: as §1, §2

[6] = tested on: P. aeruginosa, PAO-1; assay: Antibiotic activity against other strains; format: cell-based; details: in words
Experimental: as §3

[7] = tested on: P. aeruginosa ATCC 27853; assay: Antibiotic activity against other strains; format: cell-based; details: in words
Experimental: as §3

[8] = tested on: S. aureus ATCC 33591-MRSA; assay: Antibiotic activity against other strains; format: cell-based; details: in words
Experimental: as §3

[9] = tested on: E. faecalis ATCC 29212; assay: Antibiotic activity against other strains; format: cell-based; details: in words
Experimental: as §3

[10] = tested on: S. aureus ATCC 29213; assay: Antibiotic activity against other strains; format: cell-based; details: in words
Experimental: as §3

[11] = molecular target: APH(3′)-IIIa (Enterococcus faecalis, UniProt P0A3Y5); assay: Aminoglycoside-modifying enzyme kinetics, APH(3′)-IIIa; format: biochemical; details: in words
Experimental: as §1, §2

[12] = tested on: tobramycin-resistant strain of P. aeruginosa from cystic fibrosis patients; assay: Antibiotic activity against a tobramycin-resistant strain; format: cell-based; details: compared with tobramycin
[13] = tested on: NCC1OC(OC2C(N)CC(N)C(O)C2OCC(=O)NCCCCCNC(=O)COC2C(O)C(N)CC(N)C2OC2OC(CN)C(O)C(O)C2N)C(N)C(O)C1O; assay: Km as substrate for the AAC(6′) acetyltransferase activity of the bifunctional enzyme AAC(6′)-APH(2″) (BF); format: biochemical; details: other: acetyltransferase activity of the bifunctional enzyme (BF)
Experimental: as §1, §2

[14] = tested on: CN(CCCCN(C)CC(O)COC1C(O)C(N)CC(N)C1OC1OC(CN)C(O)C(O)C1N)CC(O)COC1C(O)C(N)CC(N)C1OC1OC(CN)C(O)C(O)C1N; assay: as above; format: biochemical; details: other: acetyltransferase activity of the bifunctional enzyme (BF)
Experimental: as §1, §2

[15] = tested on: NCC1OC(OC2C(N)CC(N)C(O)C2OCC(=O)NCCCNC(=O)COC2C(O)C(N)CC(N)C2OC2OC(CN)C(O)C(O)C2N)C(N)C(O)C1O; assay: as above; format: biochemical; details: other: acetyltransferase activity of the bifunctional enzyme (BF)
Experimental: as §1, §2

[16] = tested on: NCC1OC(OC2C(N)CC(N)C(O)C2OCC(=O)NCCCCCNC(=O)COC2C(O)C(N)CC(N)C2OC2OC(CN)C(O)C(O)C2N)C(N)C(O)C1O; assay: Km as substrate for AAC(6′)-Ii (6′-N-acetylation); format: biochemical; details: other: 6′-N-acetylation
Experimental: as §1, §2

[17] = tested on: CN(CCCCN(C)CC(O)COC1C(O)C(N)CC(N)C1OC1OC(CN)C(O)C(O)C1N)CC(O)COC1C(O)C(N)CC(N)C1OC1OC(CN)C(O)C(O)C1N; assay: Km as substrate for AAC(6′)-Ii (6′-N-acetylation); format: biochemical; details: other: 6′-N-acetylation
Experimental: as §1, §2

[18] = tested on: NCC1OC(OC2C(N)CC(N)C(O)C2OCC(=O)NCCCNC(=O)COC2C(O)C(N)CC(N)C2OC2OC(CN)C(O)C(O)C2N)C(N)C(O)C1O; assay: Km as substrate for AAC(6′)-Ii (6′-N-acetylation); format: biochemical; details: other: 6′-N-acetylation
Experimental: as §1, §2

[19] = tested on: NCC1OC(OC2C(N)CC(N)C(O)C2OCC(=O)NCCCCCNC(=O)COC2C(O)C(N)CC(N)C2OC2OC(CN)C(O)C(O)C2N)C(N)C(O)C1O; assay: Km as substrate for APH(3′)-IIIa (3′-O-phosphorylation); format: biochemical; details: other: 3′-O-phosphorylation
Experimental: as §1, §2

[20] = tested on: CN(CCCCN(C)CC(O)COC1C(O)C(N)CC(N)C1OC1OC(CN)C(O)C(O)C1N)CC(O)COC1C(O)C(N)CC(N)C1OC1OC(CN)C(O)C(O)C1N; assay: as above; format: biochemical; details: other: 3′-O-phosphorylation
Experimental: as §1, §2

[21] = tested on: NCC1OC(OC2C(N)CC(N)C(O)C2OCC(=O)NCCCNC(=O)COC2C(O)C(N)CC(N)C2OC2OC(CN)C(O)C(O)C2N)C(N)C(O)C1O; assay: as above; format: biochemical; details: other: 3′-O-phosphorylation
Experimental: as §1, §2

Chain of AAC(6′)-Ii (Q47764 entry or part of it): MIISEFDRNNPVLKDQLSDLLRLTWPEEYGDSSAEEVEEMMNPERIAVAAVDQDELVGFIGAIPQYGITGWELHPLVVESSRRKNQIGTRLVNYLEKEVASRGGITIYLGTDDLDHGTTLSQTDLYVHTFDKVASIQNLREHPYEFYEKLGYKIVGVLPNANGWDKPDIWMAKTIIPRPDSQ
Chain of APH(3′)-IIIa (P0A3Y5 whole entry): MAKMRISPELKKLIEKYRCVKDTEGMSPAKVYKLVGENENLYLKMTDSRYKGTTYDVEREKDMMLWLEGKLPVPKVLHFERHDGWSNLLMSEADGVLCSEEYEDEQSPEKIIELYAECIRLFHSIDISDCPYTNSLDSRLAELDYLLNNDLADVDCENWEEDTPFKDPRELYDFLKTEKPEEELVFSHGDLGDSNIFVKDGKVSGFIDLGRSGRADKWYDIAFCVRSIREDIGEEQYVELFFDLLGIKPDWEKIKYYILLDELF
Chain of AAC(6′) activity of AAC(6′)-APH(2″) (P0A0C1 whole entry): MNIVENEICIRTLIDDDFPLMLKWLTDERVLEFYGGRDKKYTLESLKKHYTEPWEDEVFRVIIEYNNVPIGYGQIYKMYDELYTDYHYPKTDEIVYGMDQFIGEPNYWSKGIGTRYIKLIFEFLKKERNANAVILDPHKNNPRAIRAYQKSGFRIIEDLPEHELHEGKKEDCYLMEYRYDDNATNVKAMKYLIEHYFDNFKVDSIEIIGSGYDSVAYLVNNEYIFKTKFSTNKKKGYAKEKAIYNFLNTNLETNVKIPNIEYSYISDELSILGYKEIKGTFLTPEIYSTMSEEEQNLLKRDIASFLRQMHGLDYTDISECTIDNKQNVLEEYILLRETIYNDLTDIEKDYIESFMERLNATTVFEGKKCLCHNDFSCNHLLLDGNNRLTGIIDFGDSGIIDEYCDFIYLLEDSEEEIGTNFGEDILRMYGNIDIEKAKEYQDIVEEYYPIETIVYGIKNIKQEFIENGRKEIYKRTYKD
Chain of APH(2″) activity of AAC(6′)-APH(2″) (P0A0C1 whole entry): as above

Molecule	Ki [2] [nM]	substrate for APH(2″) activity [2]	MIC [3] [µM]	substrate for AAC(6′)-Ii [4]	substrate for AAC(6′) activity of bifunctional enzyme [5]	substrate for APH(3′)-IIIa [11]	Kd ([1]; for neamine per binding site) [nM]	other results
CN(CCCCN(C)CC(O)COC1C(O)C(N)CC(N)C1OC1OC(CN)C(O)C(O)C1N)CC(O)COC1C(O)C(N)CC(N)C1OC1OC(CN)C(O)C(O)C1N (stereo not drawn) [Dimer 27]	700	not substrates	6.25 (≈ 5.46 µg/mL)	poor substrates	poor substrates	poor substrates	–	Kd [1]: 40 nM; antibiotic activity [6]: effective; antibiotic activity [7]: effective; antibiotic activity [8]: effective; antibiotic activity [9]: effective; antibiotic activity [10]: effective; effectiveness relative to tobramycin [12]: 3 times
NC[C@H]1O[C@H](O[C@H]2[C@H](O)[C@@H](O)[C@H](N)C[C@@H]2N)[C@H](N)[C@@H](O)[C@@H]1O [neamine, reference compound]	–	–	–	–	–	–	10000	–
AAC(6′) activity of the bifunctional aminoglycoside modifying-enzyme AAC(6′)-APH(2″) (Staphylococcus aureus)	–	–	–	–	–	–	–	Km [13]: 4.22 µM; Km [14]: 0.53 µM; Km [15]: 0.84 µM
AAC(6′)-Ii (Enterococcus faecium)	–	–	–	–	–	–	–	Km [16]: 83.6 µM; Km [17]: 28.7 µM; Km [18]: 53.4 µM
NCC1OC(OC2C(N)CC(N)C(O)C2OCC(=O)NCCCNC(=O)COC2C(O)C(N)CC(N)C2OC2OC(CN)C(O)C(O)C2N)C(N)C(O)C1O (stereo not drawn) [Dimer 4, N,N′-1,3-bis(5-Ethylcarboxyl-neamine)propylamide]	800	not substrates	31 (≈ 24.8 µg/mL)	poor substrates	poor substrates	poor substrates	1100	affinity for AS-wt relative to neamine [1]: ten-fold greater than neamine
NCC1OC(OC2C(N)CC(N)C(O)C2OCC(=O)NCCCCCNC(=O)COC2C(O)C(N)CC(N)C2OC2OC(CN)C(O)C(O)C2N)C(N)C(O)C1O (stereo not drawn) [Dimer 6, N,N′-1,3-bis(5-Ethylcarboxyl-neamine)pentylamide]	100	not substrates	125 (≈ 103 µg/mL)	poor substrates	poor substrates	poor substrates	800	affinity for AS-wt relative to neamine [1]: ten-fold greater than neamine
APH(3′)-IIIa (Enterococcus faecalis)	–	–	–	–	–	–	–	Km [19]: 2.66 µM; Km [20]: 1.1 µM; Km [21]: 0.82 µM
